Here are results for four cell lines from the supplement of paper PMC10307832.

Experiment in all cases: relative viability (nuclei count vs DMSO), 5 days (fraction); higher = more cells survive
Compound in the assay “17-AAG + OSI-027”: C=CCNC1=C2C[C@@H](C)C[C@H](OC)[C@H](O)[C@@H](C)/C=C(\C)[C@H](OC(N)=O)[C@@H](OC)/C=C\C=C(/C)C(=O)NC(=CC1=O)C2=O [17-AAG] + COc1cccc2cc(-c3nc([C@H]4CC[C@H](C(=O)O)CC4)n4ncnc(N)c34)[nH]c12 [OSI-027] (partner 0.5 µM)
Summed up:
(§1)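 Dosing by pin tool came one day after lung cancer cell lines were seeded in 1536-well plates, using either one drug or a fixed anchor-drug dose plus five library-drug doses (not always all listed) in √10 steps. After 5 days, nuclei were counted on 4× images. Relative viability is treated-well nuclei count divided by vehicle-well nuclei count, and values are medians of duplicate plates.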

Compound in the assay “17-AAG + Crizotinib”: C=CCNC1=C2C[C@@H](C)C[C@H](OC)[C@H](O)[C@@H](C)/C=C(\C)[C@H](OC(N)=O)[C@@H](OC)/C=C\C=C(/C)C(=O)NC(=CC1=O)C2=O [17-AAG] + C[C@@H](Oc1cc(-c2cnn(C3CCNCC3)c2)cnc1N)c1c(Cl)ccc(F)c1Cl [Crizotinib] (partner 1 µM)
Summed up: as §1

Compound in the assay “17-AAG + Linsitinib”: C=CCNC1=C2C[C@@H](C)C[C@H](OC)[C@H](O)[C@@H](C)/C=C(\C)[C@H](OC(N)=O)[C@@H](OC)/C=C\C=C(/C)C(=O)NC(=CC1=O)C2=O [17-AAG] + C[C@]1(O)C[C@@H](c2nc(-c3ccc4ccc(-c5ccccc5)nc4c3)c3c(N)nccn32)C1 [Linsitinib] (partner 1 µM)
Summed up: as §1

Compound in the assay “17-AAG + Tozasertib”: C=CCNC1=C2C[C@@H](C)C[C@H](OC)[C@H](O)[C@@H](C)/C=C(\C)[C@H](OC(N)=O)[C@@H](OC)/C=C\C=C(/C)C(=O)NC(=CC1=O)C2=O [17-AAG] + Cc1cc(Nc2cc(N3CCN(C)CC3)nc(Sc3ccc(NC(=O)C4CC4)cc3)n2)n[nH]1 [Tozasertib] (partner 0.1 µM)
Summed up: as §1

In the case of NCI-H2009, the relative viability with 17-AAG + OSI-027 (first compound 0.00128 µM) was found to be 0.635; in the assay with 17-AAG + OSI-027 (first compound 0.004048 µM), 0.654; with 17-AAG + OSI-027 (first compound 0.0128 µM), 0.618; in the assay with 17-AAG + OSI-027 (first compound 0.04048 µM), 0.376; in the assay with 17-AAG + OSI-027 (first compound 0.128 µM) it was 0.0937; with 17-AAG + Crizotinib (first compound 0.00128 µM), 1.12. The relative viability in the assay with 17-AAG + Crizotinib (first compound 0.004048 µM) stood at 1.01; with 17-AAG + Crizotinib (first compound 0.0128 µM) it was 0.99; in the assay with 17-AAG + Crizotinib (first compound 0.04048 µM), 0.496; in the assay with 17-AAG + Crizotinib (first compound 0.128 µM), 0.0881; with 17-AAG + Linsitinib (first compound 0.00128 µM) it was 1.14; in the assay with 17-AAG + Linsitinib (first compound 0.004048 µM), 1.2. Also, the relative viability with 17-AAG + Linsitinib (first compound 0.0128 µM) amounted to 1.01; in the assay with 17-AAG + Linsitinib (first compound 0.04048 µM) it was 0.775; with 17-AAG + Linsitinib (first compound 0.128 µM), 0.328; with 17-AAG + Tozasertib (first compound 0.00128 µM), 0.727; in the assay with 17-AAG + Tozasertib (first compound 0.004048 µM), 0.72; in the assay with 17-AAG + Tozasertib (first compound 0.0128 µM), 0.756. Further, the relative viability is 0.65 with 17-AAG + Tozasertib (first compound 0.04048 µM) and 0.259 with 17-AAG + Tozasertib (first compound 0.128 µM).

For the cell line NCI-H1651, the relative viability with 17-AAG + OSI-027 (first compound 0.00128 µM) worked out at 0.749; with 17-AAG + OSI-027 (first compound 0.004048 µM) it was 0.685; in the assay with 17-AAG + OSI-027 (first compound 0.0128 µM), 0.683; in the assay with 17-AAG + OSI-027 (first compound 0.04048 µM), 0.395; with 17-AAG + OSI-027 (first compound 0.128 µM) it was 0.143; with 17-AAG + Crizotinib (first compound 0.00128 µM), 0.828. Besides, the relative viability with 17-AAG + Crizotinib (first compound 0.004048 µM) worked out at 0.82; with 17-AAG + Crizotinib (first compound 0.0128 µM) it was 0.828; with 17-AAG + Crizotinib (first compound 0.04048 µM), 0.827; with 17-AAG + Crizotinib (first compound 0.128 µM) it was 0.571; in the assay with 17-AAG + Linsitinib (first compound 0.00128 µM), 1.09; in the assay with 17-AAG + Linsitinib (first compound 0.004048 µM), 1.01. For the same cell line, the relative viability was determined as 0.975 with 17-AAG + Linsitinib (first compound 0.0128 µM); 0.227 with 17-AAG + Linsitinib (first compound 0.04048 µM); 0.177 with 17-AAG + Linsitinib (first compound 0.128 µM); 0.778 with 17-AAG + Tozasertib (first compound 0.00128 µM); 0.667 with 17-AAG + Tozasertib (first compound 0.004048 µM); 0.612 in the assay with 17-AAG + Tozasertib (first compound 0.0128 µM). The relative viability in the assay with 17-AAG + Tozasertib (first compound 0.04048 µM) worked out at 0.302; with 17-AAG + Tozasertib (first compound 0.128 µM), 0.14.

For LCLC-103H, the relative viability with 17-AAG + OSI-027 (first compound 0.00128 µM) was 0.484; with 17-AAG + OSI-027 (first compound 0.004048 µM) it was 0.496; in the assay with 17-AAG + OSI-027 (first compound 0.0128 µM) it was 0.478; with 17-AAG + OSI-027 (first compound 0.04048 µM) it was 0.515; with 17-AAG + OSI-027 (first compound 0.128 µM) it was 0.383; with 17-AAG + Crizotinib (first compound 0.00128 µM), 1.12. The relative viability came out at 0.979 in the assay with 17-AAG + Crizotinib (first compound 0.004048 µM); 0.976 with 17-AAG + Crizotinib (first compound 0.0128 µM); 0.928 with 17-AAG + Crizotinib (first compound 0.04048 µM); 1.06 in the assay with 17-AAG + Crizotinib (first compound 0.128 µM); 1.15 in the assay with 17-AAG + Linsitinib (first compound 0.00128 µM); 1.12 in the assay with 17-AAG + Linsitinib (first compound 0.004048 µM). The relative viability is 1.13 in the assay with 17-AAG + Linsitinib (first compound 0.0128 µM); 0.965 with 17-AAG + Linsitinib (first compound 0.04048 µM); 0.992 with 17-AAG + Linsitinib (first compound 0.128 µM); 0.555 with 17-AAG + Tozasertib (first compound 0.00128 µM); 0.55 with 17-AAG + Tozasertib (first compound 0.004048 µM); 0.458 with 17-AAG + Tozasertib (first compound 0.0128 µM). Moreover, the relative viability with 17-AAG + Tozasertib (first compound 0.04048 µM) was found to be 0.532; with 17-AAG + Tozasertib (first compound 0.128 µM), 0.643.

On to NCI-H1666, for which the relative viability with 17-AAG + OSI-027 (first compound 0.00128 µM) stood at 0.875; with 17-AAG + OSI-027 (first compound 0.004048 µM) it was 0.782; with 17-AAG + OSI-027 (first compound 0.0128 µM), 0.52; with 17-AAG + OSI-027 (first compound 0.04048 µM) it was 0.395; with 17-AAG + OSI-027 (first compound 0.128 µM) it was 0.335; with 17-AAG + Crizotinib (first compound 0.00128 µM), 1.04. In addition, the relative viability in the assay with 17-AAG + Crizotinib (first compound 0.004048 µM) is 0.853; with 17-AAG + Crizotinib (first compound 0.0128 µM), 0.288; with 17-AAG + Crizotinib (first compound 0.04048 µM), 0.305; with 17-AAG + Crizotinib (first compound 0.128 µM), 0.215; with 17-AAG + Linsitinib (first compound 0.00128 µM) it was 0.764; with 17-AAG + Linsitinib (first compound 0.004048 µM), 0.554. Moreover, the relative viability is 0.27 with 17-AAG + Linsitinib (first compound 0.0128 µM); 0.253 in the assay with 17-AAG + Linsitinib (first compound 0.04048 µM); 0.224 in the assay with 17-AAG + Linsitinib (first compound 0.128 µM); 0.589 in the assay with 17-AAG + Tozasertib (first compound 0.00128 µM); 0.599 with 17-AAG + Tozasertib (first compound 0.004048 µM); 0.46 in the assay with 17-AAG + Tozasertib (first compound 0.0128 µM). The relative viability in the assay with 17-AAG + Tozasertib (first compound 0.04048 µM) worked out at 0.343; with 17-AAG + Tozasertib (first compound 0.128 µM), 0.294.
